The NIST ThermoML archive (doi:10.1016/j.jct.2015.06.024)

Assay: mn = molality of the nth substance listed, in mol/kg
Settings: 84.5 kPa, Liquid; for speed of sound: Frequency=3 MHz, Sing-around technique in a fixed-path interferometer; for mass density: Vibrating tube method

CCCCO [butan-1-ol] + O
Settings | mass density, 288.15 K [kg/m3] | mass density, 293.15 K [kg/m3] | mass density, 298.15 K [kg/m3] | mass density, 303.15 K [kg/m3] | mass density, 308.15 K [kg/m3] | speed of sound, 288.15 K [m/s] | speed of sound, 293.15 K [m/s] | speed of sound, 298.15 K [m/s] | speed of sound, 303.15 K [m/s] | speed of sound, 308.15 K [m/s]
m1 = 0.01342 | 998.939 | 998.039 | 996.876 | 995.476 | 993.859 | 1467.6 | 1483.6 | 1497.7 | 1510 | 1520.6
m1 = 0.02701 | 998.774 | 997.873 | 996.708 | 995.306 | 993.686 | 1468.7 | 1484.7 | 1498.7 | 1510.9 | 1521.3
m1 = 0.04053 | 998.614 | 997.712 | 996.547 | 995.143 | 993.508 | 1469.9 | 1485.7 | 1499.6 | 1511.7 | 1522.2
m1 = 0.05431 | 998.455 | 997.552 | 996.384 | 994.976 | 993.352 | 1471 | 1486.7 | 1500.5 | 1512.5 | 1522.9
m1 = 0.06771 | 998.296 | 997.389 | 996.218 | 994.809 | 993.182 | 1472.1 | 1487.7 | 1501.4 | 1513.3 | 1523.6
m1 = 0.08132 | 998.137 | 997.231 | 996.058 | 994.647 | 992.992 | 1473.1 | 1488.6 | 1502.3 | 1514.1 | 1524.4
m1 = 0.1063 | 997.846 | 996.934 | 995.757 | 994.341 | 992.707 | 1475.1 | 1490.5 | 1504 | 1515.7 | 1525.7
m1 = 0.1358 | 997.518 | 996.602 | 995.417 | 993.998 | 992.357 | 1477.4 | 1492.5 | 1505.8 | 1517.4 | 1527.2
